# Values of other authors as cited in patent US20050136438A1, “Genetic analysis for stratification of cancer risk” (priority 2003, published 2005).
# Where a name gives a salt, the structure may show the parent alone.
smiles,measurement,value
"O=C(c1ccc(OCCN2CCCCC2)cc1)c1c(-c2ccc(O)cc2)sc2cc(O)ccc12 [Raloxifene HCl, methanone, [6-hydroxy-2-(4-hydroxyphenyl)benzo[b]thien-3-yl]-[4-[2-(1-piperidinyl)ethoxy]phenyl]-hydrochloride]",solubility in water,very slightly soluble
